Results published in PubChem BioAssay (NCI).
Where “and” joins values, the source holds several entries; their conditions need not be identical. Equal entries are not always repeated.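 How tested: cells in 96-well plates exposed to compound for 48 hours at five concentrations. The concentration for 50% growth inhibition is given as GI50. TGI: total growth inhibition.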

Experiments:
Assay in all cases: inhibition of tumour cell growth, NCI panel, 48 h
BT-549 breast = test system: BT-549 breast
NCI-H522 lung = test system: NCI-H522 lung
MDA-MB-435 = test system: MDA-MB-435
SK-OV-3 ovarian = test system: SK-OV-3 ovarian
UACC-62 melanoma = test system: UACC-62 melanoma
IGROV1 ovarian = test system: IGROV1 ovarian
RXF 393 renal = test system: RXF 393 renal
HCC-2998 colon = test system: HCC-2998 colon
OVCAR-3 ovarian = test system: OVCAR-3 ovarian
M14 melanoma = test system: M14 melanoma

Structure (SMILES) | TGI (BT-549 breast) | TGI (NCI-H522 lung) | TGI (MDA-MB-435) | TGI (SK-OV-3 ovarian) | TGI (UACC-62 melanoma) | TGI (IGROV1 ovarian) | TGI (RXF 393 renal) [µM] | TGI (HCC-2998 colon) | TGI (OVCAR-3 ovarian) | TGI (M14 melanoma) | GI50 (BT-549 breast)
COC1C=COC2(C)Oc3c(C)c(O)c4c(O)c(c(C5SCCS5)c(O)c4c3C2=O)NC(=O)C(C)=C/C=C\C(C)C2OC(C)(C)OC(C2C)C(C)C(OC(C)=O)C1C (stereo unspecified) | 9.26 µM | 23 µM | 47.9 µM | > 100 µM | 15 µM | 30.7 µM | 30 | 20.2 µM | > 100 µM | > 100 µM | 
CSc1cnc2ccccc2c1SC1CN(Cc2ccccc2)c2ccccc2C1=O (stereo unspecified) | > 100 µM | > 100 µM | > 100 µM | > 100 µM | > 100 µM | > 100 µM | > 100 | > 100 µM | > 100 µM | > 100 µM | 
N#Cc1c(Cl)cc(Cl)n2c1nc1ccccc12 | 15.5 µM | 3.61 µM | 35.3 µM | 31.2 µM | 29.8 µM | 38.7 µM | 26.7 | 8.44 µM | 15.6 µM | 24.5 µM | 
CC(C)(C)OC(=O)NCCCNC1(c2cc3ccccc3s2)CCCCC1 | 27 µM | 32 µM | 28.7 µM | 26.2 µM | 31.4 µM | 32.2 µM | 29.8 | 14.3 µM | 27.5 µM | 25 µM | 
C#C[C@]1(O)CC[C@H]2[C@@H]3CCC4=C/C(=N/OC(=O)c5cccc6c(=O)c7ccccc7[nH]c56)CC[C@@H]4[C@H]3CC[C@@]21C | > 100 µM | 84.1 µM | > 100 µM | > 100 µM | > 100 µM | > 100 µM | > 100 | > 100 µM | > 100 µM | > 100 µM | 
CN1COCc2c1ccc1cc3ccc4c(c3nc21)COCN4S(C)(=O)=O | > 100 µM | > 100 µM | > 100 µM | > 100 µM | > 100 µM | > 100 µM | > 100 | > 100 µM | > 100 µM | > 100 µM | 
CN(C)CCOC1(Cc2ccc(F)cc2)CCC(C(C)(C)C)CC1 (stereo unspecified) | 13.3 µM and 20.9 µM | 14.2 µM and 23.5 µM | 15 µM and 12.3 µM | 27.7 µM and 28.7 µM | 15.8 µM and 17 µM | 23.8 µM and 24.3 µM | 8.04 | 12.3 µM and 12.7 µM | 23.2 µM and 28.1 µM | 3.27 µM and 3.93 µM | 3.29 µM and 8.02 µM
CCNC(=O)Nc1cccc(NC(=O)NCC)n1 | > 100 µM | > 100 µM | > 100 µM | > 100 µM | > 100 µM | > 100 µM | > 100 | > 100 µM | > 100 µM | > 100 µM | 
COc1ccc2c(cnc3c4cc(OC)c(OC)cc4ccc23)c1 | > 100 µM | > 100 µM | > 100 µM | > 100 µM | > 100 µM | > 100 µM | > 100 | > 100 µM | > 100 µM | > 100 µM | 
COc1nc2nccnc2c(=O)n1C | > 10 µM | > 10 µM | > 10 µM | > 10 µM | > 10 µM | > 10 µM | > 10 | > 10 µM | > 10 µM | > 10 µM | 
Nc1nc(Cl)cc(NCC2(CO)CCCC2)n1 | > 100 µM | > 100 µM | > 100 µM | > 100 µM | > 100 µM | > 100 µM | > 100 | > 100 µM | > 100 µM | > 100 µM | 
CC12CCC(O)CC1CCC1C2CCC2(C)C(C(=O)CC(O)C(F)(F)F)CCC12 (stereo unspecified) | > 100 µM | > 100 µM | > 100 µM | 79.5 µM | > 100 µM | > 100 µM | 29.3 | 80 µM | > 90.9 µM | > 100 µM | 
CC(=O)[C@@]1(O)CC[C@H]2[C@@H]3C[C@H](C)C4=CC(=O)C=C[C@]4(C)[C@@]3(F)[C@@H](O)C[C@@]21C | > 100 µM | > 100 µM | > 100 µM | > 100 µM | > 100 µM | > 100 µM | > 100 | > 100 µM | > 100 µM | > 100 µM | 
CCC1(C)C=Cc2c(cc(O)c3c(=O)c4ccccc4n(C)c23)O1 (stereo unspecified) | > 10 µM | > 10 µM | > 10 µM | > 10 µM | > 10 µM | > 10 µM | > 10 | > 10 µM | > 10 µM | > 10 µM | 
COc1ccc(/C=C2\N=C(SC)NC2=O)cc1 | > 100 µM | > 100 µM | > 100 µM | > 100 µM | > 100 µM | > 100 µM | > 100 | > 100 µM | > 100 µM | > 100 µM | 
O=c1oc2ccc([N+](=O)[O-])cc2c(Nc2ccc3c(c2)Oc2ccccc2O3)c1[N+](=O)[O-] | > 100 µM | > 100 µM | > 100 µM | > 100 µM | > 100 µM | > 100 µM | > 100 | 66.4 µM | > 100 µM | > 100 µM | 

Structure (SMILES) | TGI (BT-549 breast) | TGI (NCI-H522 lung) | TGI (MDA-MB-435) | TGI (SK-OV-3 ovarian) | TGI (UACC-62 melanoma) | TGI (IGROV1 ovarian) | TGI (RXF 393 renal) [µM] | TGI (HCC-2998 colon) | TGI (OVCAR-3 ovarian) | TGI (M14 melanoma) | GI50 (BT-549 breast)
CC(=O)O[C@H]1CC[C@@]2(C)C(=CC[C@H]3[C@@H]4C[C@H](N5CCOCC5)[C@H](OC(C)=O)[C@@]4(C)CC[C@@H]32)C1 | > 100 µM | > 100 µM | > 100 µM | > 100 µM | > 100 µM | > 100 µM | > 100 | > 100 µM | > 100 µM | > 100 µM | 
CCOC(=O)C1C2CCC1CC(=NNc1ccc([N+](=O)[O-])cc1[N+](=O)[O-])C2 (stereo unspecified) | > 50 µM | > 50 µM | > 50 µM | > 50 µM | > 50 µM | > 50 µM | > 50 | > 50 µM | > 50 µM | > 50 µM | 
CC(C)=CCNc1ncnc2c1ncn2CCC#N | > 100 µM | > 100 µM | > 100 µM | > 100 µM | > 100 µM | > 100 µM | > 100 | > 100 µM | > 100 µM | > 100 µM | 
CCOC(=O)NC(Nc1ccc([N+](=O)[O-])cc1)(C(F)(F)F)C(F)(F)F | > 100 µM | > 100 µM | 49.1 µM | > 100 µM | > 100 µM | > 100 µM | 97.1 | > 100 µM | > 100 µM | > 100 µM | 
C[N+]12CCCCC1C(CN1C(=O)Cc3c4ccccc4c(c4ccccc34)CC1=O)CCC2 (stereo unspecified) | > 100 µM | > 100 µM | > 100 µM | > 100 µM | > 100 µM | > 100 µM | > 100 | > 100 µM | > 100 µM | > 100 µM | 
Cn1c2ccccc2c(=NNc2cccc(C(=O)O)c2)c2ccccc21 | 62.8 µM | 21 µM | 27.1 µM | 49.6 µM | 39.8 µM | 66.2 µM | 22 | 14.9 µM | 11.9 µM | 39.1 µM | 
CCC/C(Cl)=N\OC(=O)Nc1ccc(OC(F)(F)F)cc1 | 56.6 µM | 2.39 µM | 49.9 µM | 34.2 µM | 48.7 µM | 22 µM | 31.2 | 38.6 µM | 25.2 µM | 18.5 µM | 
CCOC(=O)NC(Nc1cccc(C(F)(F)F)c1)(C(F)(F)F)C(F)(F)F | > 100 µM | > 100 µM | > 100 µM | > 100 µM | > 100 µM | > 100 µM | > 100 | > 100 µM | > 100 µM | > 100 µM | 
COc1ccc2cc(C(C)C(=O)N3CCOC3=O)ccc2c1 (stereo unspecified) | > 100 µM | > 100 µM | > 100 µM | > 100 µM | > 100 µM | > 100 µM | > 100 | > 100 µM | > 100 µM | > 100 µM | 
CC(C)(C)C(=O)CC1=Nc2ccccc2SC1(O)CC(=O)C(C)(C)C (stereo unspecified) | 51.1 µM | 34.4 µM | 64.5 µM | 53.6 µM | 31.3 µM | 61.2 µM | 65.8 | 40.5 µM | 75.3 µM | 81.9 µM | 
NC(CCC(=O)NC(CSCC1C(=O)Nc2ccccc21)C(=O)NCC(=O)O)C(=O)O (stereo unspecified) | 15.9 µM | 2.8 µM | 14.8 µM | > 49.4 µM | 23.6 µM | 13 µM | 2.33 | 10.6 µM | 11.2 µM | 10.8 µM | 
CC1=C(CO)C(=O)O[C@@H]([C@@H](CO)[C@H]2CCC3C4C[C@@H](O)[C@@]5(O)CC=CC(=O)[C@]5(C)C4CC[C@@]32C)C1 (stereo partly specified) | > 100 µM | > 100 µM | > 100 µM | > 100 µM | > 100 µM | > 100 µM | 92.9 | > 100 µM | 83.9 µM | > 100 µM | 
Oc1cccc(-c2nc3cc(F)ccc3s2)c1 | 45.1 µM | 25.7 µM | 58.5 µM | 70 µM | 35.1 µM | 33.1 µM | > 100 | 23.2 µM | 43.4 µM | 37.8 µM | 
C=C(Cl)C(C)(Cl)CCC(Br)C(C)(C)Cl (stereo unspecified) | 47.2 µM | 23.5 µM | 39.9 µM | 39.2 µM | 30.9 µM | 90.9 µM | 30.3 | 34.2 µM | 32.4 µM | 34.7 µM | 
O=C(O)/C=c1/c2ccccc2n2nc3ccccc3c12 | > 100 µM | 60 µM | > 100 µM | 65.7 µM | 43.5 µM | > 100 µM | > 100 | 84.9 µM | > 100 µM | > 100 µM | 
O=C1c2cccnc2-c2nccc3c2c1nc1cc(Br)ccc13 | 1.23 µM | 0.29 µM | 0.607 µM | 0.706 µM | 0.373 µM | 0.31 µM | 0.355 | 1.63 µM | 0.2 µM | 0.163 µM | 
